Read-outs that look alike come from different tables or passages of the source.
Columns and labels:
Format in all cases: cell-based
[1] = target: T1, CCNE1 (Homo sapiens, UniProt P24864); test: HiBit Assay Protocol for CCNE1 (HIBIT protein quantification, degradation); conditions: HEK293-CCNE1-Hibit cells, compound treatment for 6 hours
T1 construct: host or cells: HEK293-CCNE1-Hibit
In short: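 Degradation readout: lytic Nano-Glo HiBiT luminescence after 6 h exposure of HEK293-CCNE1-HiBiT cells to 10-point, 3-fold serial dilutions. Signal was scaled between medium-only and DMSO-treated wells, and DC50 came from curve fits.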

[2] = target: T2, CDK9 (Homo sapiens, UniProt P50750); test: HiBit Assay Protocol for CDK9 (HIBIT protein quantification, degradation); conditions: HEK293-CDK9-Hibit cells, compound treatment for 6 hours, read-out: CDK9 HIBIT Protein Quantification Maximum
T2 construct: host or cells: HEK293-CDK9-Hibit
T2 sequence (P50750 whole entry): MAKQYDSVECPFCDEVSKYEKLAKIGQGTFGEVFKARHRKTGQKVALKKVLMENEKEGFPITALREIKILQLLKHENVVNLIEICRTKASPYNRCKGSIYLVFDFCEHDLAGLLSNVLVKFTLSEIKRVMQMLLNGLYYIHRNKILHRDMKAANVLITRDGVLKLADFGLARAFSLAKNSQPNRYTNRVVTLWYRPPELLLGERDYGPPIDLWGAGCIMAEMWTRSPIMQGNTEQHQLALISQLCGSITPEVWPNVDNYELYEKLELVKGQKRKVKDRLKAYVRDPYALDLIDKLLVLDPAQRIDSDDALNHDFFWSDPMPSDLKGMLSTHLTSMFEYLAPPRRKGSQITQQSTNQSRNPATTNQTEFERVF
In short: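 Degradation read-out: luminescence after lytic HiBiT/LgBiT detection in HEK293-CDK9-HiBiT cells exposed 6 h to 10-point, 3-fold compound dilutions. Signal scaled between 0.1% DMSO-treated cells and medium alone; DC50 fitted from the curve.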

[3] = target: T3, CDK2 (Homo sapiens, UniProt P24941); test: HiBit Assay Protocol for CDK2 (HIBIT protein quantification, degradation); conditions: HEK293-CDK2-Hibit cells, compound treatment for 6 hours; for DC50: ABS DC50
T3 construct: host or cells: HEK293-CDK2-Hibit
In short: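 DC50 comes from a fitted curve of remaining CDK2-HiBiT luminescence, referenced to DMSO-treated cells and medium-only wells. HEK293-CDK2-HiBiT cells, plated the previous night, received compounds in a 10-point, 3-fold series for 6 h before lysis with LgBiT-containing Nano-Glo HiBiT reagent.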

T1 sequence (P24864 whole entry): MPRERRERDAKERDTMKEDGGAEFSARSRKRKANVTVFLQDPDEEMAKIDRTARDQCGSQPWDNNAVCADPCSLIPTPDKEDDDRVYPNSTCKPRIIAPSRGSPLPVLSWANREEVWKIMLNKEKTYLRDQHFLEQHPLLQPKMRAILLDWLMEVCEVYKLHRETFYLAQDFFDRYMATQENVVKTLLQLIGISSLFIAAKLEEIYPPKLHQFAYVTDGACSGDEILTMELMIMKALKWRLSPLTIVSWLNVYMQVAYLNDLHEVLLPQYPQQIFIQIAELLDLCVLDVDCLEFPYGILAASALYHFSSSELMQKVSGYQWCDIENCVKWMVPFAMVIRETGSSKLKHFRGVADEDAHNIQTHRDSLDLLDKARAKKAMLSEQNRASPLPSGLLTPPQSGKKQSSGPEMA

Compound	CCNE1 HIBIT Protein Quantification Maximum [1] [%]	Dmax ([2]; 6 h) [%]	CDK2 HIBIT Protein Quantification Maximum [3] [%]	DC50 [3] [nM]	Dmax [2] [%]
CC1CCCC1N1C(=O)C2(CC2)c2cnc(NC3CCN(S(=O)(=O)N4CC5(CCCN(C6CCN(c7cccc8c7n(C)c(=O)n8C7CCC(=O)NC7=O)CC6)C5)C4)CC3)nc21 (centres unmarked) [Compound 139]	50	11	65	3.23	
CC1CCCC1N1C(=O)C2(CC2)c2cnc(NC3CCN(S(=O)(=O)C4CCN(CC5CCN(c6ccc7c(c6)n(C)c(=O)n7C6CCC(=O)NC6=O)CC5)C4)CC3)nc21 (centres unmarked) [Compound 140, 3-(3-Methyl-5-{4-[(3-{4-[7′-(2-methylcyclopentyl)-6′-oxospiro[cyclopropane-1,5′-pyrrolo[2,3-d]pyrimidin]-2′-ylamino]piperidin-1-ylsulfonyl}pyrrolidin-1-yl)methyl]piperidin-1-yl}-2-oxo-1,3-benzodiazol-1-yl)piperidine-2,6-dione]	20	8	71	2.09	
CC1CCCC1N1C(=O)C2(CC2)c2cnc(NC3CCN(S(=O)(=O)N4CCC5(CCN(CCCCCCCOc6cccc7c6n(C)c(=O)n7C6CCC(=O)NC6=O)C5)C4)CC3)nc21 (centres unmarked) [Compound 141, 3-(3-Methyl-4-{[7-(7-{4-[7′-(2-methylcyclopentyl)-6′-oxospiro[cyclopropane-1,5′-pyrrolo[2,3-d]pyrimidin]-2′-ylamino]piperidin-1-ylsulfonyl}-2,7-diazaspiro[4.4]nonan-2-yl)heptyl]oxy}-2-oxo-1,3-benzodiazol-1-yl)piperidine-2,6-dione]	25	27	49		
CC1CCCC1N1C(=O)C2(CC2)c2cnc(NC3CCN(S(=O)(=O)N4CC5(CCCCN5CC5CCN(c6cccc7c6n(C)c(=O)n7C6CCC(=O)NC6=O)CC5)C4)CC3)nc21 (centres unmarked) [Compound 142]	26	5	53	36.1	
CC1CCCC1N1C(=O)C2(CC2)c2cnc(NC3CCN(S(=O)(=O)N4CC5(CN(CCCCOc6ccc7c(c6)n(C)c(=O)n7C6CCC(=O)NC6=O)C5)C4)CC3)nc21 (centres unmarked) [Compound 143]	1	-2	11		
CC1CCCC1N1C(=O)C2(CC2)c2cnc(NC3CCN(S(=O)(=O)N4CC5(CN(CC6CCN(c7ccc8c(c7)n(C)c(=O)n8C7CCC(=O)NC7=O)CC6)C5)C4)CC3)nc21 (centres unmarked) [Compound 144]	39	49	75	1.97	
CC1CCCC1N1C(=O)C2(CC2)c2cnc(NC3CCN(S(=O)(=O)N4CCN(CC5CCN(c6cccc7c6n(C)c(=O)n7C6CCC(=O)NC6=O)CC5)CC4)CC3)nc21 (centres unmarked) [Compound 145]	25	14	79	4.08	
Cn1c(=O)n(C2CCC(=O)NC2=O)c2ccc(C3CCN(Cc4cccc(S(=O)(=O)N5CCC(Nc6ncc7c(n6)N([C@@H]6CCC[C@@H](O)C6)C(=O)C76CC6)CC5)c4)CC3)cc21 (stereo partly drawn) [Compound 147, 3-[5-(1-{[3-(4-{7′-[(1R,3R)-3-Hydroxycyclohexyl]-6′-oxospiro[cyclopropane-1,5′-pyrrolo[2,3-d]pyrimidin]-2′-ylamino}piperidin-1-ylsulfonyl)phenyl]methyl}piperidin-4-yl)-3-methyl-2-oxo-1,3-benzodiazol-1-yl]piperidine-2,6-dione]	13		64	11	2
Cn1c(=O)n(C2CCC(=O)NC2=O)c2cccc(C3CCN(Cc4cccc(S(=O)(=O)N5CCC(Nc6ncc7c(n6)N([C@@H]6CCC[C@@H](O)C6)C(=O)C76CC6)CC5)c4)CC3)c21 (some centres unmarked) [Compound 148]	44	2	78	6	
Cn1c(=O)n(C2CCC(=O)NC2=O)c2ccc(-c3ccc(Oc4cccc(S(=O)(=O)N5CCC(Nc6ncc7c(n6)N([C@@H]6CCC[C@@H](O)C6)C(=O)C76CC6)CC5)c4)cc3)cc21 (stereo partly drawn) [Compound 149, 3-(5-{4-[3-(4-{7′-[(1R,3R)-3-Hydroxycyclohexyl]-6′-oxospiro[cyclopropane-1,5′-pyrrolo[2,3-d]pyrimidin]-2′-ylamino}piperidin-1-ylsulfonyl)phenoxy]phenyl}-3-methyl-2-oxo-1,3-benzodiazol-1-yl)piperidine-2,6-dione]	11	17	69	13.9	
Cn1c(=O)n(C2CCC(=O)NC2=O)c2cccc(-c3ccc(Oc4cccc(S(=O)(=O)N5CCC(Nc6ncc7c(n6)N([C@@H]6CCC[C@@H](O)C6)C(=O)C76CC6)CC5)c4)cc3)c21 (some centres unmarked) [Compound 150]	41	45	67	12.9	
C[C@@H]1CN(S(=O)(=O)c2cccc(CN3CCC(c4ccc5c(N6CCC(=O)NC6=O)nn(C)c5c4)CC3)c2)CC[C@@H]1Nc1ncc2c(n1)N([C@@H]1CCC[C@@H](O)C1)C(=O)C21CC1 [Compound 153, 1-{6-[1-({3-[(3R,4S)-4-{7′-[(1R,3R)-3-Hydroxycyclohexyl]-6′-oxospiro[cyclopropane-1,5′-pyrrolo[2,3-d]pyrimidin]-2′-ylamino}-3-methylpiperidin-1-ylsulfonyl]phenyl}methyl)piperidin-4-yl]-1-methylindazol-3-yl}-1,3-diazinane-2,4-dione]	28	17	57	9.42	
C[C@@H]1CN(S(=O)(=O)c2cccc(CN3CCC(c4ccc5c(N6CCC(=O)NC6=O)nn(C)c5c4)CC3)c2)CC[C@H]1Nc1ncc2c(n1)N([C@@H]1CCC[C@@H](O)C1)C(=O)C21CC1 [Compound 154]	31	15	64	7.87	
Cn1nc(N2CCC(=O)NC2=O)c2ccc(C3CCN(Cc4cccc(S(=O)(=O)N5CC[C@@H](Nc6ncc7c(n6)N([C@@H]6CCC[C@@H](O)C6)C(=O)C76CC6)[C@@H](F)C5)c4)CC3)cc21 [Compound 155, 1-{6-[1-({3-[(3S,4R)-3-Fluoro-4-{7′-[(1R,3R)-3-hydroxycyclohexyl]-6′-oxospiro[cyclopropane-1,5′-pyrrolo[2,3-d]pyrimidin]-2′-ylamino}piperidin-1-ylsulfonyl]phenyl}methyl)piperidin-4-yl]-1-methylindazol-3-yl}-1,3-diazinane-2,4-dione]	14	8	19		
Cn1nc(N2CCC(=O)NC2=O)c2ccc(C3CCN(Cc4cccc(S(=O)(=O)N5CC[C@H](Nc6ncc7c(n6)N([C@@H]6CCC[C@@H](O)C6)C(=O)C76CC6)[C@H](F)C5)c4)CC3)cc21 [Compound 156]	44	9	81	1.66	
Cn1nc(N2CCC(=O)NC2=O)c2ccc(C3CCN(Cc4cccc(S(=O)(=O)N5CC[C@H](Nc6ncc7c(n6)N([C@@H]6CCC[C@@H](O)C6)C(=O)C76CC6)[C@@H](F)C5)c4)CC3)cc21 [Compound 157]	14	12	18		
Cn1nc(N2CCC(=O)NC2=O)c2ccc(C3CCN(Cc4cc(S(=O)(=O)N5CCC(Nc6ncc7c(n6)N([C@@H]6CCC[C@@H](O)C6)C(=O)C76CC6)CC5)ccn4)CC3)cc21 [Compound 160, 1-[6-(1-{[4-(4-{7′-[(1R,3R)-3-Hydroxycyclohexyl]-6′-oxospiro[cyclopropane-1,5′-pyrrolo[2,3-d]pyrimidin]-2′-ylamino}piperidin-1-ylsulfonyl)pyridin-2-yl]methyl}piperidin-4-yl)-1-methylindazol-3-yl]-1,3-diazinane-2,4-dione]	34	38	75	25.2	
Cn1nc(N2CCC(=O)NC2=O)c2ccc(C3CCN(Cc4cccc(S(=O)(=O)N5CCC(Nc6ncc7c(n6)N(c6cc(F)ccc6Cl)C(=O)C76CC6)CC5)c4)CC3)cc21 [Compound 162, 1-(6-{1-[(3-{4-[7′-(2-Chloro-5-fluorophenyl)-6′-oxospiro[cyclopropane-1,5′-pyrrolo[2,3-d]pyrimidin]-2′-ylamino]piperidin-1-ylsulfonyl}phenyl)methyl]piperidin-4-yl}-1-methylindazol-3-yl)-1,3-diazinane-2,4-dione]	42		75	8.03	4

From patent publication US20260070917A1, “CYCLIN DEPENDENT KINASE DEGRADERS AND METHODS OF USE THEREOF” (Differentiated Therapeutics Inc, priority 2023, published 2026)
